Laboratory results taken from US11603377B2, “MTORC1 modulators and uses thereof” (Aeovian Pharmaceuticals, Inc., priority 2020, dated 2023).

Experiments:
FKBP12 = FKBP12 (Homo sapiens (Human), UniProt P62942); test: SPR assay to determine binding affinity to FKBP12 (direct binding); conditions: immobilized biotinylated avi-FKBP12
FKBP51 = FKBP51 (Homo sapiens (Human), UniProt Q13451); test: SPR assay to determine binding affinity to FKBP51 (direct binding); conditions: immobilized biotinylated avi-FKBP51
Chain of FKBP51 (Q13451 whole entry): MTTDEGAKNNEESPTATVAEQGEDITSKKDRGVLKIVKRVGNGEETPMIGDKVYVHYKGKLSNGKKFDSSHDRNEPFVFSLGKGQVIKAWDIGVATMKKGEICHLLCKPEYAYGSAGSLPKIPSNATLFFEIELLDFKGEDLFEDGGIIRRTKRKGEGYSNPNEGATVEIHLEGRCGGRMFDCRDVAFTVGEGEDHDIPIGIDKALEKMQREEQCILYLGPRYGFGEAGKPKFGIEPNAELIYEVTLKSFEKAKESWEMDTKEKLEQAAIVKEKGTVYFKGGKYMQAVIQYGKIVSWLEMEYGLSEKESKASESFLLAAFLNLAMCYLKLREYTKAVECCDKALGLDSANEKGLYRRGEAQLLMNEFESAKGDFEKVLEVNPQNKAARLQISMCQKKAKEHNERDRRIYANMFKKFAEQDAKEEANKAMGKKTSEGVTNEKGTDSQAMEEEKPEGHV
Summary of the method: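 Biotinylated avi-FKBP51 captured on streptavidin chip to about 2000 RU. Compounds injected at 0.5-1000 nM (8 points, 3-fold) for 120 s contact and 3600 s dissociation in 50 mM HEPES pH 7.5, 150 mM NaCl, 2 mM MgCl2, 1 mM DTT, 0.05% Tween-20, 1% DMSO.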

[1] = target: FKBP12 / FRB ternary complex (Homo sapiens (Human), UniProt P42345+P62942); test: SPR assay to characterize ternary complex formation with FKBP12 (FRB binding to rapalog-saturated FKBP12); conditions: FRB dilutions with 100 nM rapalog on immobilized FKBP12
Summary of the method: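 Biotinylated avi-FKBP12 immobilized (~100 RU) on streptavidin chip; A-B-A injections kept FKBP12 saturated with 100 nM rapalog while FRB (0.00011–20 μM, 3-fold, 12 points) was injected 120 s.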

[2] = target: FKBP51 / FRB ternary complex (Homo sapiens (Human), UniProt P42345+Q13451); test: SPR assay to characterize ternary complex formation with FKBP51 (FRB binding to rapalog-saturated FKBP51); conditions: FRB dilutions with 100 nM rapalog on immobilized FKBP51
Summary of the method: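 SPR with biotinylated avi-FKBP51 on streptavidin chip (~200 RU); FRB (0.00011-20 μM, 3-fold series) injected with 100 nM rapalog, A-B-A mode keeping FKBP saturated with rapalog.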

mTORC1 = mTORC1 (Homo sapiens (Human), UniProt P42345+P62942); test: mTORC1 inhibition, AlphaLISA of Phospho-p70 S6 kinase (p70S6K pT389) in PC-3 cells; format: cell-based; conditions: inhibition of p70S6K pT389 levels
mTORC2 = mTORC2 (Homo sapiens (Human), UniProt P42345+P62942); test: mTORC2 inhibition, AlphaLISA of Phospho-AKT (pAKT pS473) in PC3 cells; format: cell-based

Chain of FKBP12 (P62942 whole entry): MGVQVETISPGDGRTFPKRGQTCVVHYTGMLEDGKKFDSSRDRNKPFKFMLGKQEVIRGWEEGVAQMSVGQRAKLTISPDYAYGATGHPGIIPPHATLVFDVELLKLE

SMILES	Kd (FKBP12) [nM]	Kd (FKBP51) [nM]	Kd [1] [nM]	Kd [2] [nM]	IC50 (mTORC1) [nM]	mTORC2 % inhibition at 1 uM (mTORC2)
CO[C@@H]1C[C@H](C[C@@H](C)[C@@H]2CC(=O)[C@H](C)/C=C(\C)[C@@H](O)[C@@H](OC)C(=O)[C@H](C)C[C@H](C)/C=C/C=C/C=C(\C)[C@@H](OCCC3CCO3)C[C@@H]3CC[C@@H](C)[C@@](O)(O3)C(=O)C(=O)N3CCCC[C@H]3C(=O)O2)CC[C@H]1O (stereo partly drawn) [Compound 28]	< 0.3	10 to 100	> 800	> 800	0.1 to 0.8	B (B>20% and less than 40% inhibition at 1 uM)
CO[C@@H]1C[C@H](C[C@@H](C)[C@@H]2CC(=O)[C@H](C)/C=C(\C)[C@@H](O)[C@@H](OC)C(=O)[C@H](C)C[C@H](C)/C=C/C=C/C=C(\C)[C@@H](NS(=O)(=O)CC3CCOCC3)C[C@@H]3CC[C@@H](C)[C@@](O)(O3)C(=O)C(=O)N3CCCC[C@H]3C(=O)O2)CC[C@H]1O [Compound 6]	< 0.3	< 10	> 800	> 800	0.1 to 0.8	A (A ≤20% inhibition at 1 micro Molar (uM))
CO[C@@H]1C[C@H](C[C@@H](C)[C@@H]2CC(=O)[C@H](C)/C=C(\C)[C@@H](O)[C@@H](OC)C(=O)[C@H](C)C[C@H](C)/C=C/C=C/C=C(\C)[C@@H](NS(=O)(=O)CC3CCCC3)C[C@@H]3CC[C@@H](C)[C@@](O)(O3)C(=O)C(=O)N3CCCC[C@H]3C(=O)O2)CC[C@H]1O [Compound 23]	< 0.3	10 to 100	> 800	> 800	> 0.8	A (A ≤20% inhibition at 1 micro Molar (uM))
CO[C@@H]1C[C@H](C[C@@H](C)[C@@H]2CC(=O)[C@H](C)/C=C(\C)[C@@H](O)[C@@H](OC)C(=O)[C@H](C)C[C@H](C)/C=C/C=C/C=C(\C)[C@@H](OCC3CCS(=O)(=O)C3)C[C@@H]3CC[C@@H](C)[C@@](O)(O3)C(=O)C(=O)N3CCCC[C@H]3C(=O)O2)CC[C@H]1O (stereo partly drawn) [Compound 30]	< 0.3	10 to 100	> 800	> 800	> 0.8	A (A ≤20% inhibition at 1 micro Molar (uM))
COCCO[C@H]1C[C@@H]2CC[C@@H](C)[C@@](O)(O2)C(=O)C(=O)N2CCCC[C@H]2C(=O)O[C@H]([C@H](C)C[C@@H]2CC[C@@H](OCCCS(C)(=O)=O)[C@H](OC)C2)CC(=O)[C@H](C)/C=C(\C)[C@@H](O)[C@@H](OC)C(=O)[C@H](C)C[C@H](C)/C=C/C=C/C=C/1C [Compound 61]	< 0.3	> 100	< 300	> 800	< 0.1	B (B>20% and less than 40% inhibition at 1 uM)
COC1CC(CC(C)C2CC(=O)C(C)C=C(C)C(O)C(OC)C(=O)C(C)CC(C)C=CC=CC=C(C)C(OCC3CC3)CC3CCC(C)C(O)(O3)C(=O)C(=O)N3CCCCC3C(=O)O2)CCC1OCCO (stereo not drawn) [Compound 54]	> 1	> 100	< 300	> 800	0.1 to 0.8	B (B>20% and less than 40% inhibition at 1 uM)
COCCOCCS(=O)(=O)NC1CC2CCC(C)C(O)(O2)C(=O)C(=O)N2CCCCC2C(=O)OC(C(C)CC2CCC(OCCCS(C)(=O)=O)C(OC)C2)CC(=O)C(C)C=C(C)C(O)C(OC)C(=O)C(C)CC(C)C=CC=CC=C1C (mixture of isomers) [Compound 4]	< 0.3	10 to 100	< 300	300 to 800	< 0.1	A (A ≤20% inhibition at 1 micro Molar (uM))
CO[C@@H]1C[C@H](C[C@@H](C)[C@@H]2CC(=O)[C@H](C)/C=C(\C)[C@@H](O)[C@@H](OC)C(=O)[C@H](C)C[C@H](C)/C=C/C=C/C=C(\C)[C@@H](OC3CC3)C[C@@H]3CC[C@@H](C)[C@@](O)(O3)C(=O)C(=O)N3CCCC[C@H]3C(=O)O2)CC[C@H]1OCCCS(C)(=O)=O [Compound 64]	0.3 to 1	> 100	< 300	< 300	0.1 to 0.8	C (C≥40% and less than 60% inhibition at 1 uM)
COCCOCCS(=O)(=O)N[C@@H]1C[C@@H]2CC[C@@H](C)[C@@](O)(O2)C(=O)C(=O)N2CCCC[C@H]2C(=O)O[C@H]([C@H](C)C[C@@H]2CC[C@@H](O)[C@H](OC)C2)CC(=O)[C@H](C)/C=C(\C)[C@@H](O)[C@@H](OC)C(=O)[C@H](C)C[C@H](C)/C=C/C=C/C=C/1C [Compound 8]	< 0.3	10 to 100	300 to 800	300 to 800	0.1 to 0.8	B (B>20% and less than 40% inhibition at 1 uM)
COC1CC(CC(C)C2CC(=O)C(C)C=C(C)C(O)C(OC)C(=O)C(C)CC(C)C=CC=CC=C(C)C(OC3CCOC3)CC3CCC(C)C(O)(O3)C(=O)C(=O)N3CCCCC3C(=O)O2)CCC1O (stereo not drawn) [Compound 35]	< 0.3	< 10	> 800	> 800	> 0.8	A (A ≤20% inhibition at 1 micro Molar (uM))
COCCS(=O)(=O)NC1CC2CCC(C)C(O)(O2)C(=O)C(=O)N2CCCCC2C(=O)OC(C(C)CC2CCC(O)C(OC)C2)CC(=O)C(C)C=C(C)C(O)C(OC)C(=O)C(C)CC(C)C=CC=CC=C1C (mixture of isomers) [Compound 24]	< 0.3	10 to 100	300 to 800	300 to 800	0.1 to 0.8	A (A ≤20% inhibition at 1 micro Molar (uM))
COC1C(=O)C(C)CC/C=C/C=C/C=C(\C)C(NS(=O)(=O)CCCS(=O)(=O)O)C[C@H]2CC[C@H](C)[C@](O)(O2)C(=O)C(=O)N(C)C(C)C(=O)OC([C@H](C)C[C@@H]2CC[C@@H](OC3CC3)[C@H](OC)C2)CC(=O)C(C)/C=C(\C)C1O (stereo partly drawn) [Compound 18]	0.3 to 1	10 to 100	300 to 800	300 to 800	0.1 to 0.8	A (A ≤20% inhibition at 1 micro Molar (uM))
COC1CC(CC(C)C2CC(=O)C(C)C=C(C)C(O)C(OC)C(=O)C(C)CC(C)C=CC=CC=C(C)C(OCC3CC(F)(F)C3)CC3CCC(C)C(O)(O3)C(=O)C(=O)N3CCCCC3C(=O)O2)CCC1O (stereo not drawn) [Compound 41]	0.3 to 1	> 100	> 800	> 800	> 0.8	A (A ≤20% inhibition at 1 micro Molar (uM))
CO[C@@H]1C[C@H](C[C@@H](C)[C@@H]2CC(=O)[C@H](C)/C=C(\C)[C@@H](O)[C@@H](OC)C(=O)[C@H](C)C[C@H](C)/C=C/C=C/C=C(\C)[C@H](NS(=O)(=O)CC3CCOCC3)C[C@@H]3CC[C@@H](C)[C@@](O)(O3)C(=O)C(=O)N3CCCC[C@H]3C(=O)O2)CC[C@H]1O [Compound 5]	< 0.3	10 to 100	> 800	> 800	0.1 to 0.8	A (A ≤20% inhibition at 1 micro Molar (uM))
CCOC(=O)COC1CCC(CC(C)C2CC(=O)C(C)C=C(C)C(O)C(OC)C(=O)C(C)CC(C)C=CC=CC=C(C)C(NS(=O)(=O)CCOC)CC3CCC(C)C(O)(O3)C(=O)C(=O)N3CCCCC3C(=O)O2)CC1OC (mixture of isomers) [Compound 14]	0.3 to 1	10 to 100	> 800	> 800	> 0.8	A (A ≤20% inhibition at 1 micro Molar (uM))
CO[C@@H]1C[C@H](C[C@@H](C)[C@@H]2CC(=O)[C@H](C)/C=C(\C)[C@@H](O)[C@@H](OC)C(=O)[C@H](C)C[C@H](C)/C=C/C=C/C=C(\C)[C@@H](OCC3CCC3)C[C@@H]3CC[C@@H](C)[C@@](O)(O3)C(=O)C(=O)N3CCCC[C@H]3C(=O)O2)CC[C@H]1OCCCS(C)(=O)=O [Compound 62]	> 1	> 100	< 300	> 800	> 0.8	C (C≥40% and less than 60% inhibition at 1 uM)
